Key:
[1] = tested on: HL-60; test: Antiproliferative activity against human HL60 cell line; assay type: functional, cell-based
[2] = tested on: JM1; test: Antiproliferative activity against JM1 cell line implanted in Fischer rat liver assessed as decrease in tumor weight; assay type: functional, cell-based
[3] = tested on: Panel NCI-51 (51 carcinoma cell lines); test: Antiproliferative activity against human NCI51 cell line; assay type: functional
[4] = tested on: 786-0; test: Antiproliferative activity against human 786-0 cell line at 100 uM; assay type: functional
[5] = tested on: TK-10; test: Antiproliferative activity against human TK10 cell line at 100 uM; assay type: functional
[6] = tested on: CAKI-1; test: Antiproliferative activity against human CAKI1 cell line at 100 uM; assay type: functional

Row | Structure (SMILES) | IC50 ([1]; Homo sapiens, HL-60) [µM] | also measured
1 | N[C@@H](CCC(=O)N[C@H](CSc1ccc([N+](=O)[O-])cc1[N+](=O)[O-])C(=O)NCC(=O)O)C(=O)O | 8.4 | 
2 | CC(=O)NCC(=O)N1CCN(/[N+]([O-])=N\Oc2ccc([N+](=O)[O-])cc2[N+](=O)[O-])CC1 | 8.8 | 
3 | CC(=O)N1CCN(/[N+]([O-])=N\Oc2ccc([N+](=O)[O-])cc2[N+](=O)[O-])CC1 | 3.9 | 
4 | CCOC(=O)N1CCNCC1 [N-(ETHOXYCARBONYL)PIPERAZINE] | 8.6 | 
5 | COc1ccc(N(C)c2cc(O/N=[N+](/[O-])N(C)C)c([N+](=O)[O-])cc2[N+](=O)[O-])cc1 | > 100 | 
6 | CCOC(=O)N1CCN(/[N+]([O-])=N/Oc2cc(F)c([N+](=O)[O-])cc2[N+](=O)[O-])CC1 | 1 | 
7 | CC(=O)Oc1ccccc1C(=O)N1CCN(/[N+]([O-])=N\Oc2ccc([N+](=O)[O-])cc2[N+](=O)[O-])CC1 | 3.7 | 
8 | CCOC(=O)N1CCN(/[N+]([O-])=N/Oc2cc(O/N=[N+](\[O-])N3CCN(C(=O)OC)CC3)c([N+](=O)[O-])cc2[N+](=O)[O-])CC1 | 0.8 | 
9 | NC(=O)C1CCN(/[N+]([O-])=N/Oc2ccc([N+](=O)[O-])cc2[N+](=O)[O-])CC1 | 5.9 | 
10 | CCOC(=O)N1CCN(/[N+]([O-])=N/Oc2ccc([N+](=O)[O-])cc2[N+](=O)[O-])CC1 | 0.5 | Activity [2]: Dose-dependent effect; GI50 [3]: 1.32 µM; TGI [3]: 6.61 µM
11 | O=C(ON1C(=O)CCC1=O)N1CCN(/[N+]([O-])=N\Oc2ccc([N+](=O)[O-])cc2[N+](=O)[O-])CC1 | 27 | 
12 | CCN(CC)/[N+]([O-])=N/Oc1ccc([N+](=O)[O-])cc1[N+](=O)[O-] | 2.2 | 
13 | CC(C)(C)OC(=O)N1CCN(/[N+]([O-])=N\Oc2ccc([N+](=O)[O-])cc2[N+](=O)[O-])CC1 | 8.1 | 
14 | CCCCOC(=O)N1CCN(/[N+]([O-])=N\Oc2ccc([N+](=O)[O-])cc2[N+](=O)[O-])CC1 | 3.5 | GI50 [3]: 6.31 µM; LC50 [3]: 63.1 µM; TGI [3]: 23.4 µM; TGI ([1]; Homo sapiens, HL-60): 57.5 µM; Activity [4]: 100%; Activity [5]: 100%; Activity [6]: 100%
15 | CN1CCN(/[N+]([O-])=N\Oc2ccc([N+](=O)[O-])cc2[N+](=O)[O-])CC1 | 6.7 | 
16 | NC(=O)C1CCCN(/[N+]([O-])=N/Oc2ccc([N+](=O)[O-])cc2[N+](=O)[O-])C1 (stereo not given) | 4.4 | 
17 | CCOC(=O)N1CCN(/[N+]([O-])=N\O)CC1 | 4 | 
18 | O=[N+]([O-])c1ccc(O/N=[N+](/[O-])N2CCNCC2)c([N+](=O)[O-])c1 | 5 | 
19 | CCN(CC)/[N+]([O-])=N\Oc1ccc([N+](=O)[O-])cc1 | > 100 | 
20 | CN(C)/[N+]([O-])=N/Oc1cc(Nc2cccc(C(=O)O)c2)c([N+](=O)[O-])cc1[N+](=O)[O-] | 10.1 | 
21 | CNc1ccc(C(=O)Oc2cc(O/N=[N+](/[O-])N(C)C)c([N+](=O)[O-])cc2[N+](=O)[O-])cc1 | 6.3 | 
22 | O=[N+]([O-])c1ccc(O/N=[N+](/[O-])N2CCN(c3ccccc3)CC2)c([N+](=O)[O-])c1 | 1.5 | 
23 | CN(C)/[N+]([O-])=N\Oc1ccc([N+](=O)[O-])cc1[N+](=O)[O-] | 2.4 | 
24 | O=[N+]([O-])c1ccc(O/N=[N+](\[O-])N2CCCC2)c([N+](=O)[O-])c1 | 7.4 | 

Row | Structure (SMILES) | IC50 ([1]; Homo sapiens, HL-60) [µM] | also measured
25 | O=[N+]([O-])c1ccc(O/N=[N+](\[O-])N2CCN(c3ncccn3)CC2)c([N+](=O)[O-])c1 | 3.6 | 
26 | CN(C)/[N+]([O-])=N\Oc1cc(O)c([N+](=O)[O-])cc1[N+](=O)[O-] | > 100 | 
27 | CN(C)/[N+]([O-])=N\Oc1ccc([N+](=O)[O-])cn1 | > 100 | 
28 | CCN(CC)C(=O)N1CCN(/[N+]([O-])=N\Oc2ccc([N+](=O)[O-])cc2[N+](=O)[O-])CC1 | 7.3 | 
29 | CCOC(=O)N1CCN(/[N+]([O-])=N/Oc2ccnc(Cl)n2)CC1 | 70 | 
30 | CCN(CC)/[N+]([O-])=N/Oc1cc(O/N=[N+](/[O-])N(CC)CC)c([N+](=O)[O-])cc1[N+](=O)[O-] | 1 | 
31 | O=[N+]([O-])c1ccc(O/N=[N+](/[O-])N2CCN(c3ccccc3)CC2)nc1 | 8 | 
32 | CCN(CC)/[N+]([O-])=N\Oc1ccccc1[N+](=O)[O-] | > 100 | 
33 | C1CNCCN1 [PIPERAZINE] | 83 | 
34 | CCCOC(=O)N1CCN(/[N+]([O-])=N\Oc2ccc([N+](=O)[O-])cc2[N+](=O)[O-])CC1 | 3.7 | GI50 [3]: 2.04 µM; LC50 [3]: 40.7 µM; TGI [3]: 10.2 µM; TGI ([1]; Homo sapiens, HL-60): 8.1 µM; Activity [4]: 100%; Activity [5]: 100%; Activity [6]: 100%
35 | CN(C)S(=O)(=O)N1CCN(/[N+]([O-])=N\Oc2ccc([N+](=O)[O-])cc2[N+](=O)[O-])CC1 | 5.2 | 
36 | CCN(CC)/[N+]([O-])=N\Oc1ccnc(SC)n1 | > 100 | 
37 | O=C(c1cccnc1)N1CCN(/[N+]([O-])=N\Oc2ccc([N+](=O)[O-])cc2[N+](=O)[O-])CC1 | 7.3 | 
38 | CC(C)Cc1ccc(C(C)C(=O)N2CCN(/[N+]([O-])=N\Oc3ccc([N+](=O)[O-])cc3[N+](=O)[O-])CC2)cc1 (stereo not given) | 3.2 | 
39 | CN(c1cccc(C(=O)O)c1)c1cc(O/N=[N+](/[O-])N(C)C)c([N+](=O)[O-])cc1[N+](=O)[O-] | 12 | 
40 | O=[N+]([O-])c1ccc(Cl)c([N+](=O)[O-])c1 [DINITROCHLOROBENZENE] |  | IC50 ([1]; hl-60): 1.4 µM
41 | CN(C)/[N+]([O-])=N\Oc1cc(F)c([N+](=O)[O-])cc1[N+](=O)[O-] | 3.5 | 
42 | CCN(CC)/[N+]([O-])=N\Oc1ccc([N+](=O)[O-])cc1C(F)(F)F | 96 | 
43 | O=[N+]([O-])c1ccc(O)c([N+](=O)[O-])c1 [2,4-DINITROPHENOL] | 98 | 
44 | CN(C)/[N+]([O-])=N\Oc1cc(Nc2ccc(C(=O)O)cc2)c([N+](=O)[O-])cc1[N+](=O)[O-] | 9.1 | 
45 | O=C(OCc1ccccc1)N1CCN(/[N+]([O-])=N\Oc2ccc([N+](=O)[O-])cc2[N+](=O)[O-])CC1 | 17 | GI50 [3]: 7.08 µM; LC50 [3]: 77.6 µM; TGI [3]: 30.9 µM; Activity [4]: 100%; Activity [5]: 100%; Activity [6]: 100%
46 | O=NO [SODIUM NITRITE] | 94 | 
47 | O=[N+]([O-])c1cc(C(F)(F)F)ccc1O/N=[N+](\[O-])N1CCN(c2ccccc2)CC1 | > 100 | 
